Source: the NIST ThermoML archive (doi:10.1016/j.jct.2008.10.007)
± gives the expanded uncertainty stated by the source.

What was measured:
[1] = xn = mol fraction of the nth substance listed; details: 298.15 K, 101 kPa, Liquid, Vibrating tube method
[2] = excess molar enthalpy (molar enthalpy of mixing); xn = mol fraction of the nth substance listed; details: 298.15 K, 101 kPa, Liquid, Calvet calorimetry

ClCCCl [1,2-dichloroethane] + CCCOC(C)=O
Details | excess molar enthalpy [kcal/mol] | mass density [kg/m3]
[1], x2 = 0.0403 | – | 1224.14 ± 7.6
[1], x2 = 0.0822 | – | 1202.71 ± 6.8
[1], x2 = 0.1258 | – | 1181.25 ± 6.1
[1], x2 = 0.1723 | – | 1159.34 ± 5.4
[1], x2 = 0.2206 | – | 1137.71 ± 4.7
[1], x2 = 0.271 | – | 1116.1 ± 4.1
[1], x2 = 0.323 | – | 1094.66 ± 3.5
[1], x2 = 0.3773 | – | 1073.38 ± 3
[1], x2 = 0.435 | – | 1051.79 ± 2.5
[1], x2 = 0.4925 | – | 1031.26 ± 2
[1], x2 = 0.5542 | – | 1010.09 ± 1.6
[1], x2 = 0.6231 | – | 987.69 ± 1.3
[1], x2 = 0.693 | – | 966.04 ± 0.98
[1], x2 = 0.7654 | – | 944.7 ± 0.73
[1], x2 = 0.8389 | – | 924.07 ± 0.52
[1], x2 = 0.9173 | – | 903.11 ± 0.36
[2], x2 = 0.0472 | -0.0155 ± 0.000478 | –
[2], x2 = 0.1047 | -0.0332 ± 0.000717 | –
[2], x2 = 0.1719 | -0.0559 ± 0.0012 | –
[2], x2 = 0.2424 | -0.0793 ± 0.00167 | –
[2], x2 = 0.3127 | -0.102 ± 0.00215 | –
[2], x2 = 0.3806 | -0.117 ± 0.00263 | –
[2], x2 = 0.4423 | -0.128 ± 0.00287 | –
[2], x2 = 0.5012 | -0.132 ± 0.00287 | –
[2], x2 = 0.5663 | -0.13 ± 0.00287 | –
[2], x2 = 0.6408 | -0.122 ± 0.00263 | –
[2], x2 = 0.7169 | -0.107 ± 0.00239 | –
[2], x2 = 0.8115 | -0.0784 ± 0.00167 | –
[2], x2 = 0.9076 | -0.0447 ± 0.000956 | –

ClCCCCl [1,3-dichloropropane] + CCCOC(=O)CC
Details | excess molar enthalpy [kcal/mol] | mass density [kg/m3]
[1], x2 = 0.0456 | – | 1160.2 ± 6.8
[1], x2 = 0.09 | – | 1142.38 ± 6.1
[1], x2 = 0.1357 | – | 1124.66 ± 5.4
[1], x2 = 0.1827 | – | 1107.03 ± 4.8
[1], x2 = 0.2323 | – | 1089.1 ± 4.2
[1], x2 = 0.2857 | – | 1070.52 ± 3.6
[1], x2 = 0.3377 | – | 1053.06 ± 3.1
[1], x2 = 0.3926 | – | 1035.32 ± 2.7
[1], x2 = 0.5112 | – | 999.15 ± 1.8
[1], x2 = 0.5749 | – | 980.88 ± 1.5
[1], x2 = 0.6382 | – | 963.43 ± 1.2
[1], x2 = 0.7097 | – | 944.54 ± 0.9
[1], x2 = 0.7804 | – | 926.67 ± 0.67
[1], x2 = 0.8459 | – | 910.76 ± 0.5
[1], x2 = 0.9232 | – | 892.71 ± 0.35
[2], x2 = 0.0469 | -0.00932 ± 0.000239 | –
[2], x2 = 0.1103 | -0.0208 ± 0.000478 | –
[2], x2 = 0.1814 | -0.0361 ± 0.000956 | –
[2], x2 = 0.2562 | -0.0545 ± 0.0012 | –
[2], x2 = 0.3312 | -0.0691 ± 0.00143 | –
[2], x2 = 0.4023 | -0.0803 ± 0.00167 | –
[2], x2 = 0.4661 | -0.0882 ± 0.00191 | –
[2], x2 = 0.528 | -0.0927 ± 0.00215 | –
[2], x2 = 0.6046 | -0.0894 ± 0.00191 | –
[2], x2 = 0.706 | -0.0793 ± 0.00167 | –
[2], x2 = 0.816 | -0.0576 ± 0.0012 | –
[2], x2 = 0.9152 | -0.0318 ± 0.000717 | –

ClCCCCl [1,3-dichloropropane] + CCCOC(C)=O
Details | excess molar enthalpy [kcal/mol] | mass density [kg/m3]
[1], x2 = 0.051 | – | 1160.75 ± 6.7
[1], x2 = 0.1013 | – | 1143.09 ± 6
[1], x2 = 0.1519 | – | 1125.74 ± 5.3
[1], x2 = 0.2062 | – | 1107.55 ± 4.6
[1], x2 = 0.2602 | – | 1089.75 ± 4
[1], x2 = 0.314 | – | 1072.51 ± 3.4
[1], x2 = 0.4262 | – | 1037.75 ± 2.5
[1], x2 = 0.5391 | – | 1004.31 ± 1.7
[1], x2 = 0.5986 | – | 987.32 ± 1.4
[1], x2 = 0.6602 | – | 970.1 ± 1.1
[1], x2 = 0.7227 | – | 953.06 ± 0.87
[1], x2 = 0.758 | – | 943.63 ± 0.75
[1], x2 = 0.7981 | – | 933.1 ± 0.63
[1], x2 = 0.8553 | – | 918.23 ± 0.48
[1], x2 = 0.934 | – | 898.35 ± 0.33
[2], x2 = 0.054 | -0.00908 ± 0.000239 | –
[2], x2 = 0.1279 | -0.0206 ± 0.000478 | –
[2], x2 = 0.2091 | -0.0349 ± 0.000717 | –
[2], x2 = 0.2781 | -0.049 ± 0.0012 | –
[2], x2 = 0.3637 | -0.0624 ± 0.00143 | –
[2], x2 = 0.4401 | -0.0741 ± 0.00167 | –
[2], x2 = 0.5067 | -0.0813 ± 0.00191 | –
[2], x2 = 0.5223 | -0.0829 ± 0.00191 | –
[2], x2 = 0.572 | -0.0837 ± 0.00191 | –
[2], x2 = 0.6457 | -0.0779 ± 0.00167 | –
[2], x2 = 0.738 | -0.0679 ± 0.00143 | –
[2], x2 = 0.8364 | -0.0488 ± 0.0012 | –
[2], x2 = 0.931 | -0.0237 ± 0.000717 | –

ClCCCCCl [1,4-dichlorobutane] + CCCOC(=O)CC
Details | excess molar enthalpy [kcal/mol] | mass density [kg/m3]
[1], x2 = 0.0527 | – | 1118.03 ± 6.2
[1], x2 = 0.1038 | – | 1102.83 ± 5.5
[1], x2 = 0.1547 | – | 1087.98 ± 4.9
[1], x2 = 0.2085 | – | 1072.56 ± 4.3
[1], x2 = 0.2627 | – | 1057.37 ± 3.7
[1], x2 = 0.3186 | – | 1041.98 ± 3.2
[1], x2 = 0.3736 | – | 1027.16 ± 2.7
[1], x2 = 0.49 | – | 996.65 ± 1.9
[1], x2 = 0.5485 | – | 981.77 ± 1.6
[1], x2 = 0.612 | – | 965.97 ± 1.3
[1], x2 = 0.6735 | – | 950.93 ± 1
[1], x2 = 0.7351 | – | 936.2 ± 0.81
[1], x2 = 0.8004 | – | 920.88 ± 0.61
[1], x2 = 0.866 | – | 905.76 ± 0.46
[1], x2 = 0.9333 | – | 890.53 ± 0.33
[2], x2 = 0.0573 | -0.00621 ± 0.000239 | –
[2], x2 = 0.133 | -0.0151 ± 0.000478 | –
[2], x2 = 0.2168 | -0.0308 ± 0.000717 | –
[2], x2 = 0.3006 | -0.0461 ± 0.000956 | –
[2], x2 = 0.381 | -0.0598 ± 0.00143 | –
[2], x2 = 0.4539 | -0.071 ± 0.00167 | –
[2], x2 = 0.5117 | -0.0743 ± 0.00167 | –
[2], x2 = 0.5559 | -0.0743 ± 0.00167 | –
[2], x2 = 0.6419 | -0.071 ± 0.00167 | –
[2], x2 = 0.7366 | -0.0621 ± 0.00143 | –
[2], x2 = 0.8338 | -0.0447 ± 0.000956 | –
[2], x2 = 0.9261 | -0.0227 ± 0.000478 | –
